Results published in PubChem BioAssay AID2060602 (Molecular Pharmacology Branch, DTP, NCI, 2025).
pIC50: −log10 of the molar value. Several values for one entry are separate records, joined by “and”; a condition that tells them apart may be missing. Identical values can stand only once.

Test system: 648629-189-R-J1-PDC complex spheroids viability
Assay: Anticancer human tumor 648629-189-R-J1-PDC patient-derived bladder carcinoma cell line growth inhibition [CLK]
Conditions: for viability, T/C: stronger effect = lower value
From the text: A high-throughput screen of multi-cell type tumor spheroids was designed to identify active combinations of […] and targeted small molecules. Complex spheroids include a stromal component modeled by human endothelial cells (HUVEC) and fibroblasts modeled by human mesenchymal stem cells (MSCs). The concentration ranges selected for each drug and investigational agent were based upon clinically achievable concentrations if the clinical Cmax of the agent was known.
Compounds. The drugs and investigational agents: cirtuvivint (SM08502; NSC835563), CC-671 (NSC850746), vemurafenib (NSC761431), tapotoclax (NSC804041), sotorasib (NSC818433), adagrasib (NSC831453), MRTX-1133 (NSC836407), BAY2416964 (NSC825713), copanlisib (NSC816437), inavolisib (NSC800729), abemaciclib (NSC768073), osimertinib (NSC779217), entinostat (NSC756642), eltanexor (KPT-8602, NSC794443), venetoclax (NSC766270), ceralasertib (NSC777638), bortezomib (NSC756655), olaparib (NSC753686), talazoparib (NSC767125), alisertib (NSC759677), peposertib (NSC802822), gemcitabine (NSC613327), 5-fluorouracil (NSC19893), SN-38 (NSC673596), oxaliplatin (NSC266046), paclitaxel (NSC125973), and doxorubicin (NSC123127), were obtained from the National Cancer Institute (NCI) Developmental Therapeutics Program Chemical Repository. The FDA-approved anticancer drug set is available from the Developmental Therapeutics Program at https://dtp.cancer.gov/organization/dscb/obtaining/available plates.htm. […] The stock solutions were prepared in dimethyl sulfoxide (DMSO, Sigma-Aldrich, St. Louis, MO, cat. D2650), except for the platinum complexes which were prepared in saline (Quality Biological, Gaithersburg, MD, cat. 114-055-101), at 800-fold the tested concentration and stored at -70 degrees C prior to their use. All drugs and investigational agents were tested over a range starting from a high concentration at or near the clinical Cmax and decreasing in half-log increments. If the clinical Cmax for an agent had not been determined, the highest concentration tested was 10 microM.
Cell Culture. All cells were maintained in an incubator at 37 degrees C and 5% CO2 with 95% humidity. The PDC lines were cultured according to standard operating procedures established by the NCI PDMR. Briefly, all PDCs were thawed and cultured in Matrigel-coated flasks prepared with a working solution of 1X Ham's F-12 nutrient mix, without supplementation (Invitrogen, Waltham, MA, cat. 11765054), 100 U/mL penicillin-streptomycin (Invitrogen, cat. 15140122), and 2.5% Matrigel (Corning Inc., Corning, NY, cat. 354248) for the first three passages. The 947758-054-R-J2-PDC line was cultured in 6B/Colon 1A media, which includes advanced DMEM/F-12 (Thermo Fisher Scientific, cat. 12634028), 10 mM HEPES (Thermo Fisher Scientific, cat. 15630080), 1X GlutaMAX supplement (Thermo Fisher Scientific, cat. 35050061), 0.1 mg/mL primocin (InvivoGen, cat. ant-pm-2), 10% defined fetal bovine serum, heat inactivated (HyClone Laboratories Inc., cat. SH30070.03HI), 1.25 mM N-Acetyl-L-cysteine (Sigma-Aldrich, cat. A9165), 10 mM nicotinamide (Sigma-Aldrich, cat. N0636), 1X B-27 supplement (Thermo Fisher Scientific, cat. 17504044), 1X N-2 supplement (Thermo Fisher Scientific, cat. 17502048), and 10 microM Y-27632 dihydrochloride (Tocris Bioscience, cat. 1254). The 876862-298-R-J1-PDC was cultured in 6E media, which includes all 6B/Colon 1A media components plus 50% L-WRN conditioned media (ATCC, cat. CRL-3276), 50 ng/mL recombinant human EGF recombinant protein (hEGF; Thermo Fisher Scientific, cat. PHG0311), 10 ng/mL recombinant human fibroblast growth factor 10 (hGFG-10; PeproTech, cat. 100-26), 1 ng/mL recombinant human fibroblast growth factor 2 (hFGF-2; PeproTech, cat. 100-18B), and 1 µM prostaglandin E2 (PGE2; Tocris, cat. 2296). The 227483-062-R1-J1-PDC line was cultured in Panc media, containing all 6E components except hFGF-2, with the addition of 500 nM SB-431542 (Selleckchem, cat. S1067) and 10 nM gastrin (Tocris, cat. 3006). […]

[1] = curve of first compound, second compound 0.0316 µM
[2] = curve of first compound, second compound 0.1 µM
[3] = curve of first compound, second compound 0.316 µM
[4] = curve of first compound, second compound 1 µM
[5] = curve of first compound, second compound 3.16 µM
[6] = curve of first compound, second compound 10 µM
[7] = second compound 0.0316 µM, first compound 0.0316 µM
[8] = second compound 0.0316 µM, first compound 0.1 µM
[9] = second compound 0.0316 µM, first compound 0.316 µM
[10] = second compound 0.0316 µM, first compound 1 µM
[11] = second compound 0.1 µM, first compound 0.0316 µM
[12] = second compound 0.1 µM, first compound 0.1 µM
[13] = second compound 0.1 µM, first compound 0.316 µM
[14] = second compound 0.1 µM, first compound 1 µM
[15] = second compound 0.316 µM, first compound 0.0316 µM
[16] = second compound 0.316 µM, first compound 0.1 µM
[17] = second compound 0.316 µM, first compound 0.316 µM
[18] = second compound 0.316 µM, first compound 1 µM
[19] = second compound 1 µM, first compound 0.0316 µM
[20] = second compound 1 µM, first compound 0.1 µM
[21] = second compound 1 µM, first compound 0.316 µM
[22] = second compound 1 µM, first compound 1 µM
[23] = second compound 3.16 µM, first compound 0.0316 µM
[24] = second compound 3.16 µM, first compound 0.1 µM
[25] = second compound 3.16 µM, first compound 0.316 µM
[26] = second compound 3.16 µM, first compound 1 µM
[27] = second compound 10 µM, first compound 0.0316 µM
[28] = second compound 10 µM, first compound 0.1 µM
[29] = second compound 10 µM, first compound 0.316 µM
[30] = second compound 10 µM, first compound 1 µM
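Wherever viability, T/C is given: drug exposure lasted seven days before viability readout; 100% = DMSO vehicle control wells.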

## CC(=O)O[C@H]1C(=O)[C@@]2(C)[C@H]([C@H](OC(=O)c3ccccc3)[C@]3(O)C[C@H](OC(=O)[C@H](O)[C@@H](NC(=O)c4ccccc4)c4ccccc4)C(C)=C1C3(C)C)[C@]1(OC(C)=O)CO[C@@H]1C[C@@H]2O + CNC(=O)c1ccc(Nc2nc(OC3CCCC3)c3c(-c4ccc5nc(C)oc5c4)c[nH]c3n2)c(OC)c1
[1]
  pIC50: > 7.50
[2]
  pIC50: > 7.50
[3]
  pIC50: > 7.50
[4]
  pIC50: > 7.50
[5]
  pIC50: > 7.50
[6]
  pIC50: > 7.50
[7]
  viability, T/C: 11.1%
[8]
  viability, T/C: 9.61%
[9]
  viability, T/C: 10%
[10]
  viability, T/C: 12.1%
Second compound 0.0316 µM, first compound 3.16 µM
  viability, T/C: 14.1%
Second compound 0.0316 µM, first compound 10 µM
  viability, T/C: 15.9%
[11]
  viability, T/C: 13.8%
[12]
  viability, T/C: 12.4%
[13]
  viability, T/C: 11.7%
[14]
  viability, T/C: 12.5%
Second compound 0.1 µM, first compound 3.16 µM
  viability, T/C: 13%
Second compound 0.1 µM, first compound 10 µM
  viability, T/C: 28.7%
[15]
  viability, T/C: 40.7%
[16]
  viability, T/C: 50.4%
[17]
  viability, T/C: 62.9%
[18]
  viability, T/C: 70.5%
Second compound 0.316 µM, first compound 3.16 µM
  viability, T/C: 76.1%
Second compound 0.316 µM, first compound 10 µM
  viability, T/C: 97.3%
[19]
  viability, T/C: 40.6%
[20]
  viability, T/C: 64.3%
[21]
  viability, T/C: 58.8%
[22]
  viability, T/C: 66.5%
Second compound 1 µM, first compound 3.16 µM
  viability, T/C: 75%
Second compound 1 µM, first compound 10 µM
  viability, T/C: 76.9%
[23]
  viability, T/C: 33.9%
[24]
  viability, T/C: 47.7%
[25]
  viability, T/C: 74.3%
[26]
  viability, T/C: 64.2%
Second compound 3.16 µM, first compound 3.16 µM
  viability, T/C: 67.5%
Second compound 3.16 µM, first compound 10 µM
  viability, T/C: 72.7%
[27]
  viability, T/C: 39.9%
[28]
  viability, T/C: 42.5%
[29]
  viability, T/C: 59.8%
[30]
  viability, T/C: 64.4%
Second compound 10 µM, first compound 3.16 µM
  viability, T/C: 65.7%
Second compound 10 µM, first compound 10 µM
  viability, T/C: 73.2%

## CCc1c2c(nc3ccc(O)cc13)-c1cc3c(c(=O)n1C2)COC(=O)[C@]3(O)CC + CN1CCN(c2cc(C(=O)Nc3cc4cc(-c5cnn(C)c5)ccc4cn3)ccn2)CC1
[1]
  pIC50: > 8.50
[2]
  pIC50: > 8.50
[3]
  pIC50: > 8.50
[4]
  pIC50: > 8.50
[5]
  pIC50: > 8.50
[6]
  pIC50: > 8.50
Second compound 0.0316 µM, first compound 0.00316 µM
  viability, T/C: 36.5%
Second compound 0.0316 µM, first compound 0.01 µM
  viability, T/C: 14.7%
[7]
  viability, T/C: 7.53%
[8]
  viability, T/C: 5.28%
[9]
  viability, T/C: 3.93%
[10]
  viability, T/C: 3.89%
Second compound 0.1 µM, first compound 0.00316 µM
  viability, T/C: 29%
Second compound 0.1 µM, first compound 0.01 µM
  viability, T/C: 15.4%
[11]
  viability, T/C: 6.89%
[12]
  viability, T/C: 4.76%
[13]
  viability, T/C: 4.13%
[14]
  viability, T/C: 4.88%
Second compound 0.316 µM, first compound 0.00316 µM
  viability, T/C: 22.5%
Second compound 0.316 µM, first compound 0.01 µM
  viability, T/C: 16.7%
[15]
  viability, T/C: 10.8%
[16]
  viability, T/C: 6.46%
[17]
  viability, T/C: 6.71%
[18]
  viability, T/C: 3.75%
Second compound 1 µM, first compound 0.00316 µM
  viability, T/C: 0.15%
Second compound 1 µM, first compound 0.01 µM
  viability, T/C: 0.14%
[19]
  viability, T/C: 0.15%
[20]
  viability, T/C: 0.06%
[21]
  viability, T/C: 0.21%
[22]
  viability, T/C: 1.34%
Second compound 3.16 µM, first compound 0.00316 µM
  viability, T/C: 0.05%
Second compound 3.16 µM, first compound 0.01 µM
  viability, T/C: 1.41%
[23]
  viability, T/C: 0.1%
[24]
  viability, T/C: 0.07%
[25]
  viability, T/C: 0.3%
[26]
  viability, T/C: 0.54%
Second compound 10 µM, first compound 0.00316 µM
  viability, T/C: 0.05%
Second compound 10 µM, first compound 0.01 µM
  viability, T/C: 0.52%
[27]
  viability, T/C: 0.17%
[28]
  viability, T/C: 0.15%
[29]
  viability, T/C: 0.22%
[30]
  viability, T/C: 0.48%

## Nc1ccn(C2OC(CO)C(O)C2(F)F)c(=O)n1 (stereo unspecified)
Compound 0.0316 µM
  viability, T/C: 49.6% and 38.5%
Compound 0.1 µM
  viability, T/C: 18.4% and 12.3%
Compound 0.316 µM
  viability, T/C: 11.4% and 11%
Compound 1 µM
  viability, T/C: 6.88% and 9.43%
Compound 3.16 µM
  viability, T/C: 6.14% and 8.17%
Compound 10 µM
  viability, T/C: 4.28% and 6.46%
Curve of compound
  pIC50: > 7.50
